For two compounds, IC50 results are on record in ChEMBL document CHEMBL1137140, “Synthesis and biological evaluation of the major metabolite of atomoxetine: elucidation of a partial kappa-opioid agonist effect” (Bioorg Med Chem Lett, 2004).

The nature of experiment [1]: Inhibitory activity against Opioid receptor kappa 1 expressed in HEK293 cells. The class given is cell-based, Homo sapiens.
Experiment [2] concerns the target Nociceptin receptor (Homo sapiens, UniProt P41146). The experiment in a line: Inhibitory activity against Opioid receptor like 1 expressed in HEK293 cells. The class given is cell-based.
The nature of experiment [3]: Inhibitory activity against Opioid receptor mu 1 expressed in HEK293 cells. In kind it is cell-based, Homo sapiens.
The nature of experiment [4]: Inhibitory activity against Opioid receptor delta 1 expressed in HEK293 cells. The class given is cell-based, Homo sapiens.

Bounds are passed on as bounds.

Nociceptin receptor, sequence (P41146 whole entry): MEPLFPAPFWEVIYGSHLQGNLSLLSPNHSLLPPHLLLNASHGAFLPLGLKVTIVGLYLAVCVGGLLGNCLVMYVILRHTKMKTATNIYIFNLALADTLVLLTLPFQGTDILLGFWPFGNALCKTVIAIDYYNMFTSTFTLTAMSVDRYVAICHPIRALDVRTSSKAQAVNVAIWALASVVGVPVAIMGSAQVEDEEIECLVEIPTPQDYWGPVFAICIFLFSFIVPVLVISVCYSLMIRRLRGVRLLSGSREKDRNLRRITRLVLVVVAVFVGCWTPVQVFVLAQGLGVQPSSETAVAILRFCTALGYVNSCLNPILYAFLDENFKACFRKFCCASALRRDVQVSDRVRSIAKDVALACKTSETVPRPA

A word on the IC50: it is the concentration that gives 50% inhibition. Lower therefore signals inhibition by little substance. `CNCC[C@@H](Oc1ccc(O)cc1C)c1ccccc1`: the IC50 in experiment [1] was 0.088 µM; in experiment [2], more than 5 µM; in experiment [3] it was 0.164 µM; in experiment [4] it was 1.49 µM.

For the compound `CNCC[C@@H](Oc1ccccc1C)c1ccccc1` [ATOMOXETINE], the half-inhibitory concentration (IC50) is 4.38 µM in experiment [1], more than 5 µM in experiment [2], 4.19 µM in experiment [3] and more than 5 µM in experiment [4].
